This test deals with guinea pig trachea [モルモット・気管]. As to the kind of experiment: Bronchodilation in vitro (spontaneous tension of tracheal spirals). As to conditions: Cavia porcellus, Krebs solution, cumulative addition, read-out: IC50 (concentration inhibiting spontaneously generated tension by 50%).

With `CCOP(=O)(O)c1ncc(-c2ccc3ccccc3c2)cc1O` [実施例1, [5−(2−ナフチル)−3−ヒドロキシ−2−ピリジル]ホスホン酸エチル], the IC50 is 100 µM.

The record behind these values is patent publication JPH07501070A, “3−ピリジノール誘導体およびその医薬的使用” (スミスクライン・ビーチャム・パブリック・リミテッド・カンパニー, priority 1991, dated 1993).
